The source of these data is patent EP3072514A1, “Novel oral anticoagulants (NOACs) for preventing development and aggravation of atrial fibrillation” (Université Pierre et Marie Curie - Paris 6 (UPMC), priority 2015, dated 2016).

Common to all, as to type: in vivo, Male OFA Sprague-dawley rats
One experiment deals with paroxysmal AF. Description: Duration of an AF episode induced by rapid stimulation of the left atrium with an esophageal electrode in I/R rats. Conditions: 6 mg/kg/day. An excerpt: • Figure 1 is a combination of two graphs showing left atrium (LA) area after one month of treatment with DTI Dabigatran (A) or S35792 (B). Vehicle (V) is 60% H2O/40% PEG 300 for dabigatran and saline for S35972. Treatment of rats started just after thoracotomy without (Sham) or with occlusion of left coronary artery followed by reperfusion (I/R). Results are presented as mean +/- S.E.M, *P<0.05, **P<0.01 and *** P<0.001 vs Sham; ^##P<0.01 and ^###P<0.001 vs untreated I/R. • Figure 2 is a combination of graphs showing left ventricular end-diastolic (LVED) diameter and fractional shortening (FS) after one month of treatment with Dabigatran (A) or S35792 (B). […] DTI plasma levels are quantified using LC-MS/MS. TT are expressed as mean +/- S.E.M with reference to the mean value of sham animals that underwent thoracotomy only. *** P<0.001 vs untreated I/R. • Figure 4 is a combination of three graphs showing left atrium (LA) area (A) and diameter (B) and left ventricle end-diastolic (LVED) diameter (C) after two months of treatment with S35972. […] LA area was measured by bidimensional echocardiography. LA and LVED diameters were measured in time-motion mode. […] AF duration is measured as the time between the end of the electric stimulation and the return to sinusoidal rhythm. […] Expression of mRNA was measured with real-time qPCR. […] Expression of mRNA was measured with real-time qPCR. […]

Another experiment deals with α-MHC. Description: mRNA expression by real-time qPCR in atria and ventricle of I/R rats. An excerpt: (§1) • Figure 1 is a combination of two graphs showing left atrium (LA) area after one month of treatment with DTI Dabigatran (A) or S35792 (B). Vehicle (V) is 60% H2O/40% PEG 300 for dabigatran and saline for S35972. Treatment of rats started just after thoracotomy without (Sham) or with occlusion of left coronary artery followed by reperfusion (I/R). […] Vehicle (V) is 60% H2O/40% PEG 300 for dabigatran and saline for S35972. Treatment of rats started just after thoracotomy without (Sham) or with occlusion of left coronary artery followed by reperfusion (I/R). Results are presented as mean +/- S.E.M. * P<0.05; ** P<0.001, *** P<0.001 vs Sham; #P<0.05 vs untreated I/R. • Figure 3 is a combination of two graphs showing thrombin time (TT), which reflects anticoagulant activity, and plasma concentrations of Dabigatran (A) and S35792 (B) in rats after throracotomy with occlusion of left coronary artery followed by reperfusion (I/R). Vehicle (V) is 60% H2O/40% PEG 300 for dabigatran and saline for S35972. Tests were carried out on blood collected by cardiac puncture at sacrifice (i.e. for Dabigatran, 90 minutes after last oral administration). DTI plasma levels are quantified using LC-MS/MS. TT are expressed as mean +/- S.E.M with reference to the mean value of sham animals that underwent thoracotomy only. *** P<0.001 vs untreated I/R. • Figure 4 is a combination of three graphs showing left atrium (LA) area (A) and diameter (B) and left ventricle end-diastolic (LVED) diameter (C) after two months of treatment with S35972. Treatment of rats started just after thoracotomy without (Sham) or with occlusion of left coronary artery followed by reperfusion (I/R). LA area was measured by bidimensional echocardiography. LA and LVED diameters were measured in time-motion mode. Results are presented as mean +/- S.E.M. *P<0.05, **P<0.01 and *** P<0.001 vs Sham; ^#P<0.05 ^###P<0.001 vs untreated I/R. • Figure 5 is a graph showing the impact of S35972 administration during two months on the duration of an episode of AF in rats undergone thoracotomy without (Sham) or with occlusion of left coronary artery followed by reperfusion (I/R). AF duration is measured as the time between the end of the electric stimulation and the return to sinusoidal rhythm. […] Rats undergone thoracotomy without (Sham) or with occlusion of left coronary artery followed by reperfusion (I/R). Expression of mRNA was measured with real-time qPCR. […] Expression of mRNA was measured with real-time qPCR. […] Expression of mRNA was measured with real-time qPCR. […] LA area was measured by bidimensional echocardiography. LVED and LA diameters were measured in time-motion mode. […] AF duration is measured as the time between the end of the electric stimulation and return to sinusoidal rhythm. […]
A general note: Quantitative PCR measures a nucleic acid by following its amplification.

In another experiment the test system is β-MHC. The description is as above.
From the text: as §1

A further experiment concerns ANP. The experiment is described as above. Conditions: 6 mg/kg/day, 2 months. The text has this: (§2) • Figure 1 is a combination of two graphs showing left atrium (LA) area after one month of treatment with DTI Dabigatran (A) or S35792 (B). Vehicle (V) is 60% H2O/40% PEG 300 for dabigatran and saline for S35972. Treatment of rats started just after thoracotomy without (Sham) or with occlusion of left coronary artery followed by reperfusion (I/R). Results are presented as mean +/- S.E.M, *P<0.05, **P<0.01 and *** P<0.001 vs Sham; ^##P<0.01 and ^###P<0.001 vs untreated I/R. • Figure 2 is a combination of graphs showing left ventricular end-diastolic (LVED) diameter and fractional shortening (FS) after one month of treatment with Dabigatran (A) or S35792 (B). Vehicle (V) is 60% H2O/40% PEG 300 for dabigatran and saline for S35972. Treatment of rats started just after thoracotomy without (Sham) or with occlusion of left coronary artery followed by reperfusion (I/R). Results are presented as mean +/- S.E.M. * P<0.05; ** P<0.001, *** P<0.001 vs Sham; #P<0.05 vs untreated I/R. • Figure 3 is a combination of two graphs showing thrombin time (TT), which reflects anticoagulant activity, and plasma concentrations of Dabigatran (A) and S35792 (B) in rats after throracotomy with occlusion of left coronary artery followed by reperfusion (I/R). Vehicle (V) is 60% H2O/40% PEG 300 for dabigatran and saline for S35972. Tests were carried out on blood collected by cardiac puncture at sacrifice (i.e. for Dabigatran, 90 minutes after last oral administration). DTI plasma levels are quantified using LC-MS/MS. TT are expressed as mean +/- S.E.M with reference to the mean value of sham animals that underwent thoracotomy only. *** P<0.001 vs untreated I/R. • Figure 4 is a combination of three graphs showing left atrium (LA) area (A) and diameter (B) and left ventricle end-diastolic (LVED) diameter (C) after two months of treatment with S35972. Treatment of rats started just after thoracotomy without (Sham) or with occlusion of left coronary artery followed by reperfusion (I/R). LA area was measured by bidimensional echocardiography. LA and LVED diameters were measured in time-motion mode. Results are presented as mean +/- S.E.M. *P<0.05, **P<0.01 and *** P<0.001 vs Sham; ^#P<0.05 ^###P<0.001 vs untreated I/R. • Figure 5 is a graph showing the impact of S35972 administration during two months on the duration of an episode of AF in rats undergone thoracotomy without (Sham) or with occlusion of left coronary artery followed by reperfusion (I/R). AF duration is measured as the time between the end of the electric stimulation and the return to sinusoidal rhythm. Results are presented as mean +/- S.E.M, *P<0.05 vs Sham; ^##P<0.01 vs untreated I/R, • Figure 6 is a combination of graphs showing the impact of treatments with 25 mg/kg/d dabigatran for 4 weeks and 6 mg/kg/d S35972 for 8 weeks on atrial (A) and ventricular (B) expression of myosin heavy chain (MHC) isoforms. Rats undergone thoracotomy without (Sham) or with occlusion of left coronary artery followed by reperfusion (I/R). Expression of mRNA was measured with real-time qPCR. Results are presented as mean +/- S.E.M. *P<0.05, **P<0.01 vs Sham; #P<0.05 vs untreated I/R. • Figure 7 is a combination of graphs showing the impact of 2 months S35972 administration on the expression of the hypertrophic markers, brain and atrial natriuretic peptides (BNP and ANP) in atria (A) and ventricle (B). Rats undergone thoracotomy without (Sham) or with occlusion of left coronary artery followed by reperfusion (I/R). Expression of mRNA was measured with real-time qPCR. Results are presented as mean +/- S.E.M. *P<0.05, ***P<0.001 vs Sham; #P<0.05, ##P<0.01 vs untreated I/R. • Figure 8 is a combination of graphs showing the impact of 2 months S35972 administration on the expression of fibrotic markers, plasminogen activator inhibitor 1 (PAI-1, A) and heparin-binding epidermal growth factor (HB-EGF, B) in atria and ventricle. Rats undergone thoracotomy without (Sham) or with occlusion of left coronary artery followed by reperfusion (I/R). […]

A further experiment concerns BNP. The description is as above. Conditions: 6 mg/kg/day, 2 months.
From the text: as §2

For another experiment, the system named is HB-EGF. The experiment is described as above. Conditions: 2 months administration.
From the text: as §2

A further experiment relates to PAI-1. The description is as above. Conditions: 2 months administration.
From the text: as §2

Where [1] appears, read: atrium, 6 mg/kg/day for 8 weeks post I/R.
Setting [2] is: ventricle, 6 mg/kg/day post I/R.

With “4-oxo-3-(2-pyridin-2-ylethylamino)-4,6,7,8-tetrahydro-pyrrolo[1,2-a]pyrazine-6-carboxylic acid 2-ethylcarbamoyl methoxy-benzylamide [S35972]”, the AF duration entry in the experiment on paroxysmal AF (administered 1 month post I/R in rats with dilated atria) is “tends to decrease AF duration”. The “duration of episode of paroxysmal AF” value with paroxysmal AF (eight weeks post I/R) is given as “decreases the duration of this episode of paroxysmal AF to the control values”. For the same substance, in the experiment with α-MHC (setting [1]), the “expression of α-MHC (mRNA) in left atrium” value was “without impacting the expression of α-MHC”. In addition, the “expression of α-MHC (mRNA) in the ventricle” value in the experiment on α-MHC (setting [2]) is on record as “without significant impact on the expression of α-MHC”. For the same substance, the “synthesis of β-MHC (mRNA) in left atrium” value in the experiment on β-MHC (setting [1]) is reported as “prevents the synthesis of β-MHC”. Also, the “synthesis of β-MHC (mRNA) in the ventricle” value with β-MHC (setting [2]) is “prevents the synthesis of β-MHC”. Further, the “expression of ANP (mRNA) in the atrium” value with ANP (atrium) is recorded as “does not impact its expression”. For the same substance, in the experiment with ANP (ventricle), the “synthesis of ANP (mRNA) in the ventricle” value was “significantly reduces its synthesis”. Also, in the experiment with BNP (atrium), the “synthesis of BNP (mRNA) in the atrium” value is listed as “prevents the synthesis of BNP”. In addition, the “synthesis of BNP (mRNA) in the ventricle” value with BNP (ventricle) is “prevents the synthesis of BNP”. In addition, the “induction of HB-EGF mRNA in atria” value in the experiment with HB-EGF (atria) is reported as “prevents the induction of HB-EGF mRNA”. For the same substance, the “induction of HB-EGF mRNA in ventricles” value in the experiment with HB-EGF (ventricles) was “prevents the induction of HB-EGF mRNA”. Also, in the experiment on PAI-1 (atria), the “mRNA expression of PAI-1 in atria” value is reported as “has an inhibitory effect”. Besides, the “mRNA expression of PAI-1 in ventricles” value with PAI-1 (ventricles) is “inhibitory effect in atria only”.
